Data taken from patent US20120245137A1 (Zalicus Pharmaceuticals Ltd., priority 2009, published 2012).
Read-outs that look alike come from different tables or passages of the source.

Legend:
Format in all cases: cell-based
Human Cav 2.2 channels = Human Cav 2.2 channels (Homo sapiens, UniProt Q00975); assay: Fluorescent assay for CaV2.2 channels using potassium depolarization (VIPR/FLIPR); settings: FLIPR data
Outline: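 Fluo-4 calcium fluorescence (480/535 nm) was recorded on VIPR or FLIPR after depolarization to 70 mM final potassium. Before this, cells were preincubated 30 min at 25 °C with compound in 4–30 mM potassium, so that state-dependent block could be assessed; the cells were HEK293 coexpressing Cav2.2, α2δ, β and Kir2.3.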

T-type calcium channel [1] = molecular target: T-type calcium channel (Homo sapiens, UniProt O43497); assay: T-type channel blocking, FLIPR data (Table 6); settings: CAv3.1
Sequence of T-type calcium channel (Homo sapiens, UniProt O43497) (O43497 whole entry): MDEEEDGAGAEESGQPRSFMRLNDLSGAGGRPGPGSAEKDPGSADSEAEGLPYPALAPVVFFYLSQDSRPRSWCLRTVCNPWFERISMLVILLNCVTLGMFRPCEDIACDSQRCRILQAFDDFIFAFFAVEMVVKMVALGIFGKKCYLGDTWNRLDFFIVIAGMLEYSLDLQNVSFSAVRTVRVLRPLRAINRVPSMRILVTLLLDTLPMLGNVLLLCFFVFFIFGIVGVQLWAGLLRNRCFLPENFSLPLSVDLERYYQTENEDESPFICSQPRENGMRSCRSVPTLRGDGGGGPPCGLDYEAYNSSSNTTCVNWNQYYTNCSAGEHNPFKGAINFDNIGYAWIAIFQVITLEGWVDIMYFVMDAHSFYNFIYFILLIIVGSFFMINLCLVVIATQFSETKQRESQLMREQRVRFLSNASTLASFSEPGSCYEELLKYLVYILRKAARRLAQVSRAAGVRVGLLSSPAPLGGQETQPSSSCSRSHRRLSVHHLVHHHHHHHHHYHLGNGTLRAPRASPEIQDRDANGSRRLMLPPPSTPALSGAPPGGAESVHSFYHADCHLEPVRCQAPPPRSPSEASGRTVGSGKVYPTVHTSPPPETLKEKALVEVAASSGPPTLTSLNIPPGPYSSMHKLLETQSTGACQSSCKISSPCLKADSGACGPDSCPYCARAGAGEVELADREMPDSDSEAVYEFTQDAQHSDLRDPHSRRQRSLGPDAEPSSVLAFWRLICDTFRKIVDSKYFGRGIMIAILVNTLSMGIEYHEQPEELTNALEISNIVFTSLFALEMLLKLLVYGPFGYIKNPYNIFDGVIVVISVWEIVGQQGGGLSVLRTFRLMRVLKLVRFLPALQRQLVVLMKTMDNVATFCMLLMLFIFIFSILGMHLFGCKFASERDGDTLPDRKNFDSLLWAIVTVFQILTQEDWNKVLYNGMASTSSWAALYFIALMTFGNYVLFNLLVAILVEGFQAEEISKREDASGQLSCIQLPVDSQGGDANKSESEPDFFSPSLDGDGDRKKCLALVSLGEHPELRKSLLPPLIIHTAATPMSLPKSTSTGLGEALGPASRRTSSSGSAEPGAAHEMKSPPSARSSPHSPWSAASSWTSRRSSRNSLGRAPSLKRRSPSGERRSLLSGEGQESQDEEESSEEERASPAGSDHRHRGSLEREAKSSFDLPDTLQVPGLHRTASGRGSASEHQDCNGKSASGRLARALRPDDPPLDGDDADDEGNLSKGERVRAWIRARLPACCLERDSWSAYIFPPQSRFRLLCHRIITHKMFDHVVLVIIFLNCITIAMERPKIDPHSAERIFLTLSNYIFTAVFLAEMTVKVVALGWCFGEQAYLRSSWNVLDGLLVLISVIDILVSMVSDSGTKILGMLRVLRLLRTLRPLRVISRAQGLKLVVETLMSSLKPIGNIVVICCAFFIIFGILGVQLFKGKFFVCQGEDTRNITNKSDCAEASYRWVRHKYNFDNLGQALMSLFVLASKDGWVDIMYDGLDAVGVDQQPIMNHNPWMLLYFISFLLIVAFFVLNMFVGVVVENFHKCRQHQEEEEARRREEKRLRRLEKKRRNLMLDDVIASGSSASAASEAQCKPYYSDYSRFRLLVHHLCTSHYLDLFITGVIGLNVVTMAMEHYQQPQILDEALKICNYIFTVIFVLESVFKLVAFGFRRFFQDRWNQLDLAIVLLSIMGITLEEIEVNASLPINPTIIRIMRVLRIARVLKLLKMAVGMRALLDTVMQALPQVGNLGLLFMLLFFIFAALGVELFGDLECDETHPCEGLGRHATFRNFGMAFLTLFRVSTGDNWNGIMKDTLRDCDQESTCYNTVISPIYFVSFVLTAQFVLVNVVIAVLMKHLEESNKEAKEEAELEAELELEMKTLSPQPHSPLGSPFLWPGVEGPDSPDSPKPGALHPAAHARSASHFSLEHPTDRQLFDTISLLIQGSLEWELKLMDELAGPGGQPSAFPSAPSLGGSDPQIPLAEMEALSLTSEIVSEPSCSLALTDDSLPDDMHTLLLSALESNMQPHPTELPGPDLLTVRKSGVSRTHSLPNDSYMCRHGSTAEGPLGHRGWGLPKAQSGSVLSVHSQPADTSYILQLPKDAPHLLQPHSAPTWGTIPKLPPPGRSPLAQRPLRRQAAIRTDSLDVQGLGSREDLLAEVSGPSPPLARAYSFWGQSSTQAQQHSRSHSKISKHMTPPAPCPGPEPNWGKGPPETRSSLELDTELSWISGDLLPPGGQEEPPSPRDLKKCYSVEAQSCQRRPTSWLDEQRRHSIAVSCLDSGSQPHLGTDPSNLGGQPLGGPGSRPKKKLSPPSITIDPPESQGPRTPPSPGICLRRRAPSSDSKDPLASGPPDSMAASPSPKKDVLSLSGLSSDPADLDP
From the text: (§1) Another method, high-throughput spectrophotometric assay, utilizes loading of the cell lines with a fluorescent dye sensitive to intracellular calcium concentration and subsequent examination of the effects of compounds on the ability of depolarization by potassium chloride or other means to alter intracellular calcium levels.

T-type calcium channel [2] = molecular target: T-type calcium channel (Homo sapiens, UniProt O95180); assay: T-type channel blocking, FLIPR data (Table 6)
Sequence of T-type calcium channel (Homo sapiens, UniProt O95180) (O95180 whole entry): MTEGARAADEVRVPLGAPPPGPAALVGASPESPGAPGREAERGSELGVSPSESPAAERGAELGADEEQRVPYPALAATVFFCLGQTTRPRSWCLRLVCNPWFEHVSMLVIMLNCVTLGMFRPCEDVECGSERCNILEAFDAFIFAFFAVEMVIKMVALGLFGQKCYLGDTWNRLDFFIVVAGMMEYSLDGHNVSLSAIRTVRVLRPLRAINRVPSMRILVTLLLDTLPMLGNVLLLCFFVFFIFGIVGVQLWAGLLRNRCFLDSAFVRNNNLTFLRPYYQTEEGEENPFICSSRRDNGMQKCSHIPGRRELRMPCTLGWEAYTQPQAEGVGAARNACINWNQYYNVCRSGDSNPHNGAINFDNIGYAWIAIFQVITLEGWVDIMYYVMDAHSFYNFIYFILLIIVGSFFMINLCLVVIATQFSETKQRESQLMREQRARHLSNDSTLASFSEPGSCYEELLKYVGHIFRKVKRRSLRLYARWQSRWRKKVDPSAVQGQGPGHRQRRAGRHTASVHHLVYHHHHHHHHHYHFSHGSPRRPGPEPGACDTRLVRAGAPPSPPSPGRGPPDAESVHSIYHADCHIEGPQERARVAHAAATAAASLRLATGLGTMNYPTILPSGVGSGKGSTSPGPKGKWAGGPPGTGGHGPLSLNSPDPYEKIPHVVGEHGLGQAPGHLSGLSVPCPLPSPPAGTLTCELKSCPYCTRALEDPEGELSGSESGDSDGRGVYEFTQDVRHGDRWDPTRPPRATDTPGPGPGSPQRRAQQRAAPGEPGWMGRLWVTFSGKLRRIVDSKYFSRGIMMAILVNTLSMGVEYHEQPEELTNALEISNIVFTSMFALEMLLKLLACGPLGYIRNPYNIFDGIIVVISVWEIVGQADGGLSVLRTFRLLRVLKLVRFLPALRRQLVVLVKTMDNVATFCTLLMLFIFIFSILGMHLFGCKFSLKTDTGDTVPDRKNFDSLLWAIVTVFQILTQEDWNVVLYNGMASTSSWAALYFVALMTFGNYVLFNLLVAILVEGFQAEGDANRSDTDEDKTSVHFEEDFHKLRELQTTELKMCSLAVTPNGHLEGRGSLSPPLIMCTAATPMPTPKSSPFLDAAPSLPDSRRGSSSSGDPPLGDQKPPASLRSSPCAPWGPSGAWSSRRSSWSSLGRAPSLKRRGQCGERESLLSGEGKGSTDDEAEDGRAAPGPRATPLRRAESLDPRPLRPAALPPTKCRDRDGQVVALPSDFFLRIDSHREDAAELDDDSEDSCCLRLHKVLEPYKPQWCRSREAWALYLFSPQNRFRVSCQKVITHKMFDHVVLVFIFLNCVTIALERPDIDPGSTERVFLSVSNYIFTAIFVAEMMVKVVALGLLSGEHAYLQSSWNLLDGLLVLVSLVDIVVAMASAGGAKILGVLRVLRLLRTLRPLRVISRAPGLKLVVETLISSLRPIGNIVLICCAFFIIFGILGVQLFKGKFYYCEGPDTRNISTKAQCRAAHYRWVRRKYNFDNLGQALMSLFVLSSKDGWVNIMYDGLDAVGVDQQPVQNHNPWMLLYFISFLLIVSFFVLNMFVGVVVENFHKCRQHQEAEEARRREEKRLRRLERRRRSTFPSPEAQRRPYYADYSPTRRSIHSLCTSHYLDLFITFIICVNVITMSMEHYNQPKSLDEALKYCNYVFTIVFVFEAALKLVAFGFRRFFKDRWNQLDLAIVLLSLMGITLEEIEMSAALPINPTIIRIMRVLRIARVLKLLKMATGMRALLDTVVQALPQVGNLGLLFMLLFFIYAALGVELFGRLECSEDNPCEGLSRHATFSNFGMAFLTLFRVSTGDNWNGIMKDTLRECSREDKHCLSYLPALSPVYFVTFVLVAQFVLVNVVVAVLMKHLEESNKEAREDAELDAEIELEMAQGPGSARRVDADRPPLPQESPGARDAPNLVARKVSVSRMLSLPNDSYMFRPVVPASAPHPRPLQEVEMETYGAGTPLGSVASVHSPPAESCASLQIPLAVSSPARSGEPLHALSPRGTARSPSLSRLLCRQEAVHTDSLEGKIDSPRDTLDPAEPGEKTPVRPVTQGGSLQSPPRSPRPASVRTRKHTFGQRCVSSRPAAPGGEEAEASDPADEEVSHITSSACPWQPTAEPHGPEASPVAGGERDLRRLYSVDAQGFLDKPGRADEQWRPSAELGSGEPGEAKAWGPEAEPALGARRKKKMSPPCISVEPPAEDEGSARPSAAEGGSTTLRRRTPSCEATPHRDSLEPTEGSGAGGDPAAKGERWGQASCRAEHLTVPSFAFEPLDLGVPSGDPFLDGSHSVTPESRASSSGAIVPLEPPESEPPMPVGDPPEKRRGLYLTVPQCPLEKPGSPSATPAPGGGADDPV
From the text: as §1

CAv1.2 [3] = molecular target: T1, CAv1.2 (Homo sapiens, UniProt Q13936); assay: FLIPR data, CAv1.2 channel blocking (Table 6); settings: for CAv1.2 IC50 Ratio closed/inact.: ratio closed/inactivated IC50
CAv1.2 [4] = molecular target: T1, CAv1.2; assay: L-type (CAv1.2) channel blocking, FLIPR data (Table 6)
[5] = closed state, read-out: CAv2.2 IC50 Closed
[6] = inactivated state, read-out: CAv2.2 IC50 Inact.
[7] = CAv3.2, closed state, read-out: CAv3.2 IC50 Closed
[8] = CAv3.2, inactivated state, read-out: CAv3.2 IC50 Inact.
[9] = CAv3.2, ratio closed/inactivated IC50
[10] = closed state, read-out: CAv1.2 IC50 Closed
[11] = inactivated state, read-out: CAv1.2 IC50 Inact.

SMILES	IC50 (Human Cav 2.2 channels; [5])	IC50 (Human Cav 2.2 channels; [6])	CAv2.2 IC50 Ratio closed/inact. (Human Cav 2.2 channels; ratio closed/inactivated IC50)	IC50 (T-type calcium channel [1])	IC50 (T-type calcium channel [2]; [7])	IC50 (T-type calcium channel [2]; [8])	CAv3.2 IC50 Ratio closed/inact. (T-type calcium channel [2]; [9])	CAv2.2 IC50 Ratio closed/inact. (Human Cav 2.2 channels; ratio closed/inact.)	CAv3.2 IC50 Ratio closed/inact. (T-type calcium channel [2]; CAv3.2, ratio closed/inact.)	IC50 (CAv1.2 [3]; [10])	IC50 (CAv1.2 [3]; [11])	CAv1.2 IC50 Ratio closed/inact. (CAv1.2 [3])	IC50 (CAv1.2 [4]; [10])	IC50 (CAv1.2 [4]; [11])	CAv1.2 IC50 Ratio closed/inact. (CAv1.2 [4])
CC(C)(C[C@H]1C[C@H](NC(=O)c2ccc(C(F)(F)F)nc2)C1)S(=O)(=O)c1cccc(C(F)(F)F)c1 [Compound 723]	3.14 µM	0.49 µM	6.4	7.86 µM	6.22 µM	5.1 µM	1.2	–	–	≥ 10 µM	4.89 µM	2	–	–	–
CC(C)(C[C@H]1C[C@H](NC(=O)c2ccc(OCC(F)(F)F)nc2)C1)S(=O)(=O)c1cccc(C(F)(F)F)c1 [Compound 724]	0.98 µM	0.09 µM	10.9	1.41 µM	2.24 µM	0.83 µM	2.7	–	–	5.23 µM	1.21 µM	4.3	–	–	–
Cn1nc(C(F)(F)F)cc1C(=O)N[C@H]1C[C@H](CC(C)(C)S(=O)(=O)c2cccc(C(F)(F)F)c2)C1 [Compound 725]	1.63 µM	0.14 µM	11.6	3.6 µM	2.31 µM	0.68 µM	3.4	–	–	6.7 µM	2.78 µM	2.4	–	–	–
CC(C)S(=O)(=O)c1cc(C(F)(F)F)cnc1C(=O)N[C@H]1C[C@@H](CC(C)(C)S(=O)(=O)c2cccc(C(F)(F)F)c2)C1 [Compound 729]	6.9 µM	0.15 µM	46	8.24 µM	8.13 µM	6.78 µM	1.2	–	–	≥ 10 µM	9.3 µM	1.1	–	–	–
CC(C)(C[C@H]1C[C@@H](NC(=O)c2ccc(Cl)cc2S(C)(=O)=O)C1)S(=O)(=O)c1cccc(C(F)(F)F)c1 [Compound 731]	5.38 µM	0.23 µM	23.4	≥ 10 µM	6.36 µM	6.67 µM	1	–	–	≥ 10 µM	≥ 10 µM	–	–	–	–
CC(C)(C[C@H]1C[C@@H](NC(=O)c2ccc(C(F)(F)F)cc2)C1)S(=O)(=O)c1cccc(C(F)(F)F)c1 [Compound 732]	0.92 µM	0.06 µM	15.3	3.81 µM	0.57 µM	0.76 µM	0.8	–	–	2.89 µM	0.62 µM	4.7	–	–	–
CC(C)(C[C@H]1C[C@@H](NC(=O)c2ccc(Cl)cn2)C1)S(=O)(=O)c1cccc(C(F)(F)F)c1 [Compound 733]	0.5 µM	0.05 µM	10	6.16 µM	4.61 µM	1.41 µM	3.3	–	–	7.27 µM	3.99 µM	1.8	–	–	–
CC(C)(C[C@H]1C[C@@H](NC(=O)c2cnc(C(F)(F)F)nc2)C1)S(=O)(=O)c1cccc(C(F)(F)F)c1 [Compound 734]	3.39 µM	0.13 µM	26.1	≥ 10 µM	8.7 µM	2.27 µM	3.8	–	–	≥ 10 µM	5.67 µM	1.8	–	–	–
CC(C)(C[C@H]1C[C@@H](NC(=O)c2ccc(C(F)(F)F)cn2)C1)S(=O)(=O)c1cccc(C(F)(F)F)c1 [Compound 735]	0.69 µM	0.07 µM	9.9	3.51 µM	4.55 µM	1.46 µM	3.1	–	–	6.37 µM	3.71 µM	1.7	–	–	–
CC(C)(C[C@H]1C[C@@H](NC(=O)c2ccc(C(F)(F)F)nc2)C1)S(=O)(=O)c1cccc(C(F)(F)F)c1 [Compound 736]	2.2 µM	0.13 µM	16.9	≥ 10 µM	6.64 µM	2.73 µM	2.4	–	–	≥ 10 µM	3.32 µM	3	–	–	–
CC(C)(C[C@H]1C[C@@H](NC(=O)c2ccc(OCC(F)(F)F)nc2)C1)S(=O)(=O)c1cccc(C(F)(F)F)c1 [Compound 737]	0.86 µM	0.04 µM	21.5	2.18 µM	2.06 µM	0.52 µM	4	–	–	4.23 µM	1.28 µM	3.3	–	–	–
Cn1nc(C(F)(F)F)cc1C(=O)N[C@H]1C[C@@H](CC(C)(C)S(=O)(=O)c2cccc(C(F)(F)F)c2)C1 [Compound 738]	1.27 µM	0.12 µM	10.6	5.75 µM	2.25 µM	0.52 µM	4.3	–	–	5.36 µM	2.34 µM	2.3	–	–	–

Continued, in another order:

IC50 (Human Cav 2.2 channels; [5])	IC50 (Human Cav 2.2 channels; [6])	CAv2.2 IC50 Ratio closed/inact. (Human Cav 2.2 channels; ratio closed/inactivated IC50)	IC50 (T-type calcium channel [1])	IC50 (T-type calcium channel [2]; [7])	IC50 (T-type calcium channel [2]; [8])	CAv3.2 IC50 Ratio closed/inact. (T-type calcium channel [2]; [9])	CAv2.2 IC50 Ratio closed/inact. (Human Cav 2.2 channels; ratio closed/inact.)	CAv3.2 IC50 Ratio closed/inact. (T-type calcium channel [2]; CAv3.2, ratio closed/inact.)	SMILES	IC50 (CAv1.2 [3]; [10])	IC50 (CAv1.2 [3]; [11])	CAv1.2 IC50 Ratio closed/inact. (CAv1.2 [3])	IC50 (CAv1.2 [4]; [10])	IC50 (CAv1.2 [4]; [11])	CAv1.2 IC50 Ratio closed/inact. (CAv1.2 [4])
3.91 µM	0.85 µM	–	≥ 10 µM	≥ 10 µM	10 µM	–	4.6	1	CC(C)(C[C@H]1C[C@@H](NC(=O)[C@@H]2CCCC[C@@H]2N)C1)S(=O)(=O)c1cccc(C(F)(F)F)c1 [Compound 740]	–	–	–	≥ 10 µM	≥ 10 µM	–
3.86 µM	1.31 µM	–	≥ 10 µM	≥ 10 µM	10 µM	–	2.9	1	CC(C)(C[C@H]1C[C@@H](NC(=O)[C@@H]2CCCC[C@H]2N)C1)S(=O)(=O)c1cccc(C(F)(F)F)c1 [Compound 741]	–	–	–	≥ 10 µM	≥ 10 µM	–
3.37 µM	1.46 µM	–	–	–	10 µM	–	2.3	–	CC(C)(C[C@H]1C[C@H](NC(=O)[C@H]2CCCC[C@@H]2N)C1)S(=O)(=O)c1cccc(C(F)(F)F)c1 [Compound 743]	–	–	–	≥ 10 µM	≥ 10 µM	–
4.11 µM	0.94 µM	–	≥ 10 µM	≥ 10 µM	–	–	4.4	–	CC(C)(C[C@H]1C[C@@H](NC(=O)[C@H]2CCCC[C@H]2N)C1)S(=O)(=O)c1cccc(C(F)(F)F)c1 [Compound 744]	–	–	–	≥ 10 µM	≥ 10 µM	–
4.22 µM	1.21 µM	–	≥ 10 µM	≥ 10 µM	10 µM	–	3.5	1	CC(C)(C[C@H]1C[C@@H](NC(=O)[C@H]2CCCC[C@@H]2N)C1)S(=O)(=O)c1cccc(C(F)(F)F)c1 [Compound 745]	–	–	–	8.68 µM	≥ 10 µM	0.9
10 µM	5.05 µM	–	≥ 10 µM	9.95 µM	5.57 µM	–	2	1.8	O=C(c1ccc(OCC(F)(F)F)nc1)N1CC(CS(=O)(=O)c2cc(F)cc(C(F)(F)F)c2)C1 [Compound 747]	–	–	–	≥ 10 µM	8.8 µM	1.1
10 µM	2.29 µM	–	–	≥ 10 µM	10 µM	–	4.4	1	CC(C)S(=O)(=O)c1cc(C(F)(F)F)cnc1C(=O)NC[C@H]1C[C@H](S(=O)(=O)c2cccc(Cl)c2)C1 [Compound 770]	–	–	–	≥ 10 µM	≥ 10 µM	–
–	5.67 µM	–	–	≥ 10 µM	10 µM	–	1.8	1	O=C(NC[C@H]1C[C@H](S(=O)(=O)c2cccc(Cl)c2)C1)c1ccc(Cl)cn1 [Compound 772]	–	–	–	≥ 10 µM	–	–
9.98 µM	4.32 µM	–	–	6.63 µM	10 µM	–	2.3	0.7	O=C(NC[C@H]1C[C@H](S(=O)(=O)c2cccc(Cl)c2)C1)c1ccc(C(F)(F)F)cn1 [Compound 774]	–	–	–	≥ 10 µM	6.45 µM	1.6
10 µM	≥ 10 µM	–	–	–	10 µM	–	1	–	N[C@H]1CCCC[C@@H]1C(=O)NC[C@H]1C[C@H](S(=O)(=O)c2cccc(Cl)c2)C1 [Compound 779]	–	–	–	≥ 10 µM	≥ 10 µM	–
10 µM	≥ 10 µM	–	–	≥ 10 µM	–	–	1	–	N[C@@H]1CCCC[C@@H]1C(=O)NC[C@H]1C[C@H](S(=O)(=O)c2cccc(Cl)c2)C1 [Compound 780]	–	–	–	≥ 10 µM	≥ 10 µM	–
